In the CheMixHub ionic liquid set:

Test: xn = mol fraction of the nth substance listed

O=C(O)CC(=O)O + CC[n+]1ccn(C)c1.[Cl-]
Details	viscosity [mPa·s]
303.15 K, 101.33 kPa, x2 = 0.667	138.9

[Cl][Al]([Cl])[Cl] + CC[n+]1ccn(C)c1.[Cl-]
101 kPa
Details	electrical conductivity [S/m]
263 K, frequency 0.1 MHz, x1 = 0.5455	0.14
263 K, frequency 0.1 MHz, x1 = 0.5652	0.13
263 K, frequency 0.1 MHz, x1 = 0.5833	0.57
263 K, frequency 0.1 MHz, x1 = 0.6	0.36
263 K, frequency 0.1 MHz, x1 = 0.6296	0.35
273 K, frequency 0.1 MHz, x1 = 0.5455	0.59
273 K, frequency 0.1 MHz, x1 = 0.5652	0.92
273 K, frequency 0.1 MHz, x1 = 0.5833	0.84
273 K, frequency 0.1 MHz, x1 = 0.6	0.53
273 K, frequency 0.1 MHz, x1 = 0.6296	0.52
283 K, frequency 0.1 MHz, x1 = 0.5238	1.24
283 K, frequency 0.1 MHz, x1 = 0.5455	1.34
283 K, frequency 0.1 MHz, x1 = 0.5652	1.33
283 K, frequency 0.1 MHz, x1 = 0.5833	1.13
283 K, frequency 0.1 MHz, x1 = 0.6	0.73
283 K, frequency 0.1 MHz, x1 = 0.6296	0.73
293 K, frequency 0.1 MHz, x1 = 0.5238	1.58
293 K, frequency 0.1 MHz, x1 = 0.5455	1.81
293 K, frequency 0.1 MHz, x1 = 0.5652	1.73
293 K, frequency 0.1 MHz, x1 = 0.6	0.96
293 K, frequency 0.1 MHz, x1 = 0.6296	0.99
303 K, frequency 0.1 MHz, x1 = 0.5238	2.05
303 K, frequency 0.1 MHz, x1 = 0.5455	2.47
303 K, frequency 0.1 MHz, x1 = 0.5652	2.3
303 K, frequency 0.1 MHz, x1 = 0.5833	1.89
303 K, frequency 0.1 MHz, x1 = 0.6	1.25
303 K, frequency 0.1 MHz, x1 = 0.6296	1.29
303.15 K, frequency 0 MHz, x1 = 0.6	1.92
303.15 K, frequency 0 MHz, x1 = 0.63	1.8
303.15 K, frequency 0 MHz, x1 = 0.67	1.64
306.15 K, frequency 1 MHz, x2 = 0.556	1.46
306.15 K, frequency 1 MHz, x2 = 0.67	0.409
313 K, frequency 0.1 MHz, x1 = 0.5238	2.58
313 K, frequency 0.1 MHz, x1 = 0.5652	2.95
313 K, frequency 0.1 MHz, x1 = 0.5833	2.34
313 K, frequency 0.1 MHz, x1 = 0.6	1.64
313 K, frequency 0.1 MHz, x1 = 0.6296	1.52
323 K, frequency 0.1 MHz, x1 = 0.5238	3.35
323 K, frequency 0.1 MHz, x1 = 0.5455	3.65
323 K, frequency 0.1 MHz, x1 = 0.5652	3.37
323 K, frequency 0.1 MHz, x1 = 0.5833	2.85
323 K, frequency 0.1 MHz, x1 = 0.6	2.18
323 K, frequency 0.1 MHz, x1 = 0.6296	1.83
333 K, frequency 0.1 MHz, x1 = 0.5238	4.09
333 K, frequency 0.1 MHz, x1 = 0.5455	3.96
333 K, frequency 0.1 MHz, x1 = 0.5652	4.11
333 K, frequency 0.1 MHz, x1 = 0.5833	3.04
333 K, frequency 0.1 MHz, x1 = 0.6	2.4
333 K, frequency 0.1 MHz, x1 = 0.6296	2.16
342.1 K, frequency 0.1 MHz, x1 = 0.5238	5.15
343 K, frequency 0.1 MHz, x1 = 0.5455	4.63
343 K, frequency 0.1 MHz, x1 = 0.5652	4.72
343 K, frequency 0.1 MHz, x1 = 0.5833	3.21
343 K, frequency 0.1 MHz, x1 = 0.6	2.82
343 K, frequency 0.1 MHz, x1 = 0.6296	2.49
352.1 K, frequency 0.1 MHz, x1 = 0.5238	6.3
353 K, frequency 0.1 MHz, x1 = 0.5652	5.34
353 K, frequency 0.1 MHz, x1 = 0.5833	4.2
353 K, frequency 0.1 MHz, x1 = 0.6	3.2
353 K, frequency 0.1 MHz, x1 = 0.6296	2.95
362.1 K, frequency 0.1 MHz, x1 = 0.6	3.69
363 K, frequency 0.1 MHz, x1 = 0.5238	6.4
363 K, frequency 0.1 MHz, x1 = 0.5455	5.69
363 K, frequency 0.1 MHz, x1 = 0.5652	5.87
363 K, frequency 0.1 MHz, x1 = 0.5833	4.33
363 K, frequency 0.1 MHz, x1 = 0.6296	3.3

101.3 kPa
Details	electrical conductivity [S/m]
270.1 K, x2 = 0.3333	0.533
270.4 K, x2 = 0.4348	0.75
270.6 K, x2 = 0.5556	0.36
271.1 K, x2 = 0.3636	0.6
271.1 K, x2 = 0.4	0.702
275.6 K, x2 = 0.4	0.822
275.6 K, x2 = 0.5263	0.832
275.6 K, x2 = 0.5556	0.471
276.1 K, x2 = 0.3333	0.711
276.1 K, x2 = 0.4348	0.901
277.1 K, x2 = 0.3636	0.798
280.6 K, x2 = 0.4348	1.01
281.1 K, x2 = 0.3636	0.946
281.1 K, x2 = 0.4	1.06
281.1 K, x2 = 0.4762	1.18
281.1 K, x2 = 0.5	1.28
281.1 K, x2 = 0.5263	1.03
281.1 K, x2 = 0.5556	0.595
282.1 K, x2 = 0.3333	0.896
288.15 K, x2 = 0.4348	1.34
290.15 K, x2 = 0.3636	1.33
290.15 K, x2 = 0.4762	1.59
290.65 K, x2 = 0.4	1.4
290.65 K, x2 = 0.5263	1.4
290.65 K, x2 = 0.5556	0.87
291.15 K, x2 = 0.5	1.83
292.15 K, x2 = 0.3333	1.23
303.15 K, x2 = 0.3333	1.65
303.15 K, x2 = 0.3636	1.82
303.15 K, x2 = 0.5263	1.93
303.15 K, x2 = 0.5556	1.33
304.15 K, x2 = 0.4762	2.42
304.15 K, x2 = 0.5	2.57
305.15 K, x2 = 0.4	2.03
305.15 K, x2 = 0.4348	2.24
309.15 K, x2 = 0.5556	1.57
312.65 K, x2 = 0.5263	2.46
314.15 K, x2 = 0.4348	2.69
314.65 K, x2 = 0.4	2.48
315.65 K, x2 = 0.3636	2.3
316.15 K, x2 = 0.3333	2.12
317.65 K, x2 = 0.4762	3.2
317.65 K, x2 = 0.5	3.3
320.15 K, x2 = 0.5556	2.21
321.15 K, x2 = 0.5263	3.01
323.15 K, x2 = 0.3333	2.46
323.15 K, x2 = 0.3636	2.64
323.15 K, x2 = 0.4	2.92
324.15 K, x2 = 0.4348	3.2
324.15 K, x2 = 0.4762	3.63
324.15 K, x2 = 0.5	3.79
330.15 K, x2 = 0.5556	2.71
331.15 K, x2 = 0.4	3.4
331.15 K, x2 = 0.5263	3.65
332.15 K, x2 = 0.4348	3.7
332.15 K, x2 = 0.4762	4.14
332.65 K, x2 = 0.5	4.37
333.15 K, x2 = 0.3333	2.93
334.15 K, x2 = 0.3636	3.18
341.15 K, x2 = 0.4348	4.28
342.15 K, x2 = 0.4	4.02
342.15 K, x2 = 0.4762	4.9
342.15 K, x2 = 0.5	5.03
342.15 K, x2 = 0.5263	4.39
343.15 K, x2 = 0.3333	3.38
343.15 K, x2 = 0.3636	3.64
344.15 K, x2 = 0.5556	3.63
350.65 K, x2 = 0.4	4.54
351.15 K, x2 = 0.4348	4.88
352.15 K, x2 = 0.5263	5.04
353.15 K, x2 = 0.3333	3.88
353.15 K, x2 = 0.3636	4.2
353.15 K, x2 = 0.4762	5.63
353.15 K, x2 = 0.5	5.79
353.15 K, x2 = 0.5556	4.27
361.15 K, x2 = 0.4	5.18
361.15 K, x2 = 0.4348	5.54
361.15 K, x2 = 0.4762	6.35
361.15 K, x2 = 0.5	6.43
363.15 K, x2 = 0.3333	4.45
363.15 K, x2 = 0.3636	4.8
363.15 K, x2 = 0.5263	5.91
364.15 K, x2 = 0.5556	5.09
370.15 K, x2 = 0.3333	4.82
370.15 K, x2 = 0.3636	5.19
371.15 K, x2 = 0.4	5.84
371.15 K, x2 = 0.4348	6.23
371.15 K, x2 = 0.4762	7.02
371.15 K, x2 = 0.5	7.19
372.15 K, x2 = 0.5263	6.56
374.15 K, x2 = 0.5556	5.89
